# Data as given in ChEMBL document CHEMBL4507328, “Data for DCP probe BAY-390” (2021).
# pKi: −log10 of the molar value.
# How the values were obtained:
# [1] = target: Purinergic P2Y (Rattus norvegicus) (UniProt O35811+Q9EPX4+P49651+Q63371+P41232+O35881+Q6GUG4); details: Compound concentration 10.0 uM
# [2] = target: GABA-A receptor; anion channel (Rattus norvegicus) (UniProt O09028+P15431+P18506+P18508+P19969+P20236+P23574+P23576+P28471+P28473+P30191+P62813+P63079+P63138+Q91ZM7+Q9ES14); details: Compound concentration 10.0 uM
# [3] = target: Type-2 angiotensin II receptor (Homo sapiens) (UniProt P50052); details: Compound concentration 10.0 uM
# [4] = target: T1, Alpha-1A adrenergic receptor (Homo sapiens) (UniProt P35348); details: Rattus norvegicus; Compound concentration 10.0 uM
# T1 sequence (whole entry): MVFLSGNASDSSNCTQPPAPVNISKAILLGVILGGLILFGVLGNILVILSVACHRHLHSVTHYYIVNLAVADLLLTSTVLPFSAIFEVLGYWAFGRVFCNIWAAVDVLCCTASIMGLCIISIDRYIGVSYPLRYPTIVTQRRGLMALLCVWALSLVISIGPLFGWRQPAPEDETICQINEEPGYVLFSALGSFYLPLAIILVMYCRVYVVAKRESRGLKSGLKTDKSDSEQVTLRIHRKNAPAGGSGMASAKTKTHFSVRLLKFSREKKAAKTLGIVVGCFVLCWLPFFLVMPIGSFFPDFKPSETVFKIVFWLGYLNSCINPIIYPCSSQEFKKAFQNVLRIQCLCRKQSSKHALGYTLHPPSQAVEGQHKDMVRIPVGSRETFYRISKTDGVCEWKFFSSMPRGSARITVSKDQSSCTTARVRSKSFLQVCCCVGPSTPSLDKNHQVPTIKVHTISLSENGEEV
# Oryctolagus cuniculus = species on record: Oryctolagus cuniculus; assay: Inhibition of Purinergic P2X at 10 µM in the Eurofins-Panlabs radioligand binding assay (Eurofins_assay_268700); type: protein assay; details: Compound concentration 10.0 uM
# [5] = target: T2, Glutamate NMDA receptor (Rattus norvegicus) (UniProt P35439+Q00959+Q00960+Q00961+Q62645+Q8VHN2+Q9R1M7); details: Compound concentration 10.0 uM
# [6] = target: Alpha-2B adrenergic receptor (Homo sapiens) (UniProt P18089); details: Compound concentration 10.0 uM
# [7] = target: T3, 5-hydroxytryptamine receptor 1A (Homo sapiens) (UniProt P08908); details: Compound concentration 10.0 uM
# T3 sequence (whole entry): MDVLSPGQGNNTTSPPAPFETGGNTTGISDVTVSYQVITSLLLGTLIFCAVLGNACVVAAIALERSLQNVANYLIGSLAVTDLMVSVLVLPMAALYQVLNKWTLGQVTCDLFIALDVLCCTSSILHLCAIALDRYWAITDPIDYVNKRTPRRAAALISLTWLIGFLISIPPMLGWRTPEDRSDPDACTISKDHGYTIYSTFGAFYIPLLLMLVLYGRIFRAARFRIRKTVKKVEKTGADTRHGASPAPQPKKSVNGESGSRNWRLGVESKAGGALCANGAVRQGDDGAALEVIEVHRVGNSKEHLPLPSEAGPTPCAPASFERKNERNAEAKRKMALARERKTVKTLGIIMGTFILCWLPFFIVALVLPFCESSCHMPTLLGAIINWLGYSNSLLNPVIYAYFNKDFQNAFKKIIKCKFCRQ
# [8] = target: Progesterone receptor (Homo sapiens) (UniProt P06401); details: Compound concentration 10.0 uM
# Histamine H2 receptor = Histamine H2 receptor (Homo sapiens, UniProt P25021); details: Compound concentration 10.0 uM
# [9] = target: T4, Alpha-2C adrenergic receptor (Homo sapiens) (UniProt P18825); details: Compound concentration 10.0 uM
# T4 sequence (whole entry): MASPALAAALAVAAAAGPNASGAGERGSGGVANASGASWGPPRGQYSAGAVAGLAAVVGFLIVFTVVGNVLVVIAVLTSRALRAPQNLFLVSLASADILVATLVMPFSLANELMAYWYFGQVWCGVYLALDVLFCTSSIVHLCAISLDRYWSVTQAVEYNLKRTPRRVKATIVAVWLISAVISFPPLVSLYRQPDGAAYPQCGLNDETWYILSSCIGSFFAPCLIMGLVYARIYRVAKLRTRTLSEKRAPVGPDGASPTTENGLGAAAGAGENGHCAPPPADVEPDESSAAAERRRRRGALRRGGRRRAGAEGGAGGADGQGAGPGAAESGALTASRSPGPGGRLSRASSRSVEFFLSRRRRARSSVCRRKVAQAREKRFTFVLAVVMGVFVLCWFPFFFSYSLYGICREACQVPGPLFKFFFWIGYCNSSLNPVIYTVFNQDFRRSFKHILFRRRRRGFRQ
# [10] = target: Adenosine receptor A2a (Homo sapiens) (UniProt P29274); details: Compound concentration 10.0 uM
# [11] = target: T5, Muscarinic acetylcholine receptor M2 (Homo sapiens) (UniProt P08172); details: Compound concentration 10.0 uM
# T5 sequence (whole entry): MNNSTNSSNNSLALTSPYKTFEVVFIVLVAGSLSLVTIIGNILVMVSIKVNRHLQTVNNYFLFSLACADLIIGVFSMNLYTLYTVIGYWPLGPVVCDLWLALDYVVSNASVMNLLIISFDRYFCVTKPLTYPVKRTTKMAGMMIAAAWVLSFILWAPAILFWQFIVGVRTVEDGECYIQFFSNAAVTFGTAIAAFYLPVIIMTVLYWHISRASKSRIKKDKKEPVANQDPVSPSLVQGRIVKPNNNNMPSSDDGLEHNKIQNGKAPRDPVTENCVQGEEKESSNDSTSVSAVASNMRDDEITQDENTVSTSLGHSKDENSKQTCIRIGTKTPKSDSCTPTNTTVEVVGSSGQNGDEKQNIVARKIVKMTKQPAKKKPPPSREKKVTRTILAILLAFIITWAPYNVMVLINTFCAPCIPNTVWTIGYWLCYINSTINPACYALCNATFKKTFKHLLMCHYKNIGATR
# [12] = target: Growth hormone secretagogue receptor type 1 (Homo sapiens) (UniProt Q92847); details: Compound concentration 10.0 uM
# [13] = target: Sigma non-opioid intracellular receptor 1 (Homo sapiens) (UniProt Q99720); details: Compound concentration 10.0 uM
# [14] = target: Sodium-dependent dopamine transporter (Homo sapiens, UniProt Q01959); assay: GPCRScan assay: inhibition of DAT; parameters: radioligand conc. used [nm] 3.6 – 16.0, parental cells stable HEK
# [15] = target: T2, Glutamate NMDA receptor (Rattus norvegicus); details: Compound concentration 10.0 uM; remark: listed apart in the source
# [16] = target: Gamma-aminobutyric acid type B receptor subunit 1 (Homo sapiens) (UniProt Q9UBS5); details: Rattus norvegicus; Compound concentration 10.0 uM
# Chain of Gamma-aminobutyric acid type B receptor subunit 1 (Homo sapiens) (Q9UBS5 whole entry): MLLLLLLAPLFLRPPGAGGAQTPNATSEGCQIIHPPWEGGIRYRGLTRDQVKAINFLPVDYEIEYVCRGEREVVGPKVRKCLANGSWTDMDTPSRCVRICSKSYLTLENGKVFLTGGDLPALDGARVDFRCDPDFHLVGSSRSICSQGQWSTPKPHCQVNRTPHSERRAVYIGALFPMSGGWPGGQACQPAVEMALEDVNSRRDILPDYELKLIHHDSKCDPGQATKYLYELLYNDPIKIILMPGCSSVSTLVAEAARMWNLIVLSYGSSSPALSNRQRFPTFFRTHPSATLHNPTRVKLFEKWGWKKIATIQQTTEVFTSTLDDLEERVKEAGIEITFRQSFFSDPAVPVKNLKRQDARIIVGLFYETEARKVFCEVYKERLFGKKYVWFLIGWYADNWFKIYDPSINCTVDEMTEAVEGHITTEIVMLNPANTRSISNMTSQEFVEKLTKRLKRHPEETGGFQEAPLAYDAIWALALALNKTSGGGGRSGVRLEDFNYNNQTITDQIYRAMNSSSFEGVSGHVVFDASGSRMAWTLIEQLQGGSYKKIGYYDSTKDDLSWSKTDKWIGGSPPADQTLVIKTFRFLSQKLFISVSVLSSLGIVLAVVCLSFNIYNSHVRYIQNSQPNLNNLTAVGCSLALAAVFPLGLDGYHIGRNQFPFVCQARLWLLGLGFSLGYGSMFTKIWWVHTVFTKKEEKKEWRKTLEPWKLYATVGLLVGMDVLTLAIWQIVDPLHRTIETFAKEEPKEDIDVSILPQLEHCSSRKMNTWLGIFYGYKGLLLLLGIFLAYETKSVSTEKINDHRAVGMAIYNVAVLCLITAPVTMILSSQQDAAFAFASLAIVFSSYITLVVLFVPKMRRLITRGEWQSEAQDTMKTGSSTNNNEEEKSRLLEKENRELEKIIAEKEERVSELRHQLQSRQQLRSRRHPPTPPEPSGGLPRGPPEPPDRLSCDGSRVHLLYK
# Chain of Sodium-dependent dopamine transporter (Q01959 whole entry): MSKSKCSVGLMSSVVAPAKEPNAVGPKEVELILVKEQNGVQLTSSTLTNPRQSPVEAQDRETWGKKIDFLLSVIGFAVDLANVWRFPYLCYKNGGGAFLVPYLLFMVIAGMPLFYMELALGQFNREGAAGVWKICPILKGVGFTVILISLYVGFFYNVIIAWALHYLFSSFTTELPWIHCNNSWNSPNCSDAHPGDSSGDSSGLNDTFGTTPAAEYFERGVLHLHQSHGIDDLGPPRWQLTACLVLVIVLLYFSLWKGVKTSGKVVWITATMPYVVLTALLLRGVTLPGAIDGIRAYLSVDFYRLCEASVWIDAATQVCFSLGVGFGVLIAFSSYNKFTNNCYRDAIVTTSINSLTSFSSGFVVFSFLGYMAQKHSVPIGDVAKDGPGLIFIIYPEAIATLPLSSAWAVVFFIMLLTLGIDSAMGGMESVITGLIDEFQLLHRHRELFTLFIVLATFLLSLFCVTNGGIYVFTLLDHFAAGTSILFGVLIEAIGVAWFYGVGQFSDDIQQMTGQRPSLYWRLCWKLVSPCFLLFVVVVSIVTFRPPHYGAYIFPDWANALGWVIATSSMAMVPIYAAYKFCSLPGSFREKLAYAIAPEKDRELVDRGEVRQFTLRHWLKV
# Chain of Alpha-2B adrenergic receptor (Homo sapiens) (P18089 whole entry): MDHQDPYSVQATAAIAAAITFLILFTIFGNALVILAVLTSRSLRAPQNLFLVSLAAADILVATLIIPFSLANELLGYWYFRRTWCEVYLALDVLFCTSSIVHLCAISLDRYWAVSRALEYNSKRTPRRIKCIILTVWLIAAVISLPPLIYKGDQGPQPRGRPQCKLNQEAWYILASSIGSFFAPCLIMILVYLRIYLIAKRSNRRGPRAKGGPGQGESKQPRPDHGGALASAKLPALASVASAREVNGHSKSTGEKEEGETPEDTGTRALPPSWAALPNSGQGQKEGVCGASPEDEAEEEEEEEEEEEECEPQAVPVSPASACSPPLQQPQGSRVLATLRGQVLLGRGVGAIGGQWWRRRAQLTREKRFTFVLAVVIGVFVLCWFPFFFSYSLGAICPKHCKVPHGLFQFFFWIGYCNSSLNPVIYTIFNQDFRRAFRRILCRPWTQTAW
# Chain of Histamine H2 receptor (P25021 whole entry): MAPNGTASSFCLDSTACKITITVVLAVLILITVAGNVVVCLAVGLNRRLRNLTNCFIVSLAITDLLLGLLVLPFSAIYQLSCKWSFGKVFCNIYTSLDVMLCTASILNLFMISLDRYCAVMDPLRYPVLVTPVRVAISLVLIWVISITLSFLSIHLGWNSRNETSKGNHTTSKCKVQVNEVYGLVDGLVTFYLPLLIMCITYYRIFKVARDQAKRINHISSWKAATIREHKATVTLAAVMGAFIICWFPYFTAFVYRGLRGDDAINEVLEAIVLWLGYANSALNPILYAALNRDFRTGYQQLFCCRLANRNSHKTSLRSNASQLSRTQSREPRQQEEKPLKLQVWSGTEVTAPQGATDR
# Chain of Adenosine receptor A2a (Homo sapiens) (P29274 whole entry): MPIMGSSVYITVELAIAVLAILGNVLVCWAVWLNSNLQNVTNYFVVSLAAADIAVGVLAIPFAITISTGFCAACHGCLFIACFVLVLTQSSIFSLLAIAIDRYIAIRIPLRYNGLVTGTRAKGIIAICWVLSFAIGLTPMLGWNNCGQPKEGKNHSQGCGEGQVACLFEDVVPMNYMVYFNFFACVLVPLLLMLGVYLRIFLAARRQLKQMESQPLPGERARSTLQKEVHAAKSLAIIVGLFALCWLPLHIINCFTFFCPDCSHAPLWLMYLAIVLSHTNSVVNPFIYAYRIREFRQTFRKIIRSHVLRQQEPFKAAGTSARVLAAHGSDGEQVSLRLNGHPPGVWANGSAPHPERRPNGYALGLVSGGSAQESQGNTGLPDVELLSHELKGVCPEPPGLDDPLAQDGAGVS
# Chain of Growth hormone secretagogue receptor type 1 (Homo sapiens) (Q92847 whole entry): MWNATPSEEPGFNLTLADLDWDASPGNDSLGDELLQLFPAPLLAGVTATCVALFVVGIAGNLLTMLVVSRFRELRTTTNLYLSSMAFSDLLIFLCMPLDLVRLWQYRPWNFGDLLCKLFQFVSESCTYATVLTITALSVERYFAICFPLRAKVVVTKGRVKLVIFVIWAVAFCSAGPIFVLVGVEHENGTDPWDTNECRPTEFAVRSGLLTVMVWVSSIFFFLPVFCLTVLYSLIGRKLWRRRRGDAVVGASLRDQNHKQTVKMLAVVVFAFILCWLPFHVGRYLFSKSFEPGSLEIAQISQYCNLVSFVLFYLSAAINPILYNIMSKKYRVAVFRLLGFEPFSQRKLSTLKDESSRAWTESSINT
# Chain of Sigma non-opioid intracellular receptor 1 (Homo sapiens) (Q99720 whole entry): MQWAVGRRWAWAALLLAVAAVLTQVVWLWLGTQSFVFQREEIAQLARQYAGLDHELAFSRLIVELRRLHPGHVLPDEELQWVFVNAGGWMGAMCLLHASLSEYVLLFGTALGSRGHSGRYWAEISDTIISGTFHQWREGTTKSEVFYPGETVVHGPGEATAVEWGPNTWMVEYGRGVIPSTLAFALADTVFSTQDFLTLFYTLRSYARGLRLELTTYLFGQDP
# Chain of Type-2 angiotensin II receptor (Homo sapiens) (P50052 whole entry): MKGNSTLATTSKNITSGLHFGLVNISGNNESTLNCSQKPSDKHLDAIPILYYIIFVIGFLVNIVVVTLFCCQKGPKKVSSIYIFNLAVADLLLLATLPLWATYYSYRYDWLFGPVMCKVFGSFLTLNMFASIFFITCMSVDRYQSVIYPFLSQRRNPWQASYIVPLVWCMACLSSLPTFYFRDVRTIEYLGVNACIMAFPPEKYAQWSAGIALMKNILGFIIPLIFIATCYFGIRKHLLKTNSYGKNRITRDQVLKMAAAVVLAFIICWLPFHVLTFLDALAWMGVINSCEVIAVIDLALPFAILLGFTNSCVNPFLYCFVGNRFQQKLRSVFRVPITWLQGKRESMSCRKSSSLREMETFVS
# Chain of Progesterone receptor (Homo sapiens) (P06401 whole entry): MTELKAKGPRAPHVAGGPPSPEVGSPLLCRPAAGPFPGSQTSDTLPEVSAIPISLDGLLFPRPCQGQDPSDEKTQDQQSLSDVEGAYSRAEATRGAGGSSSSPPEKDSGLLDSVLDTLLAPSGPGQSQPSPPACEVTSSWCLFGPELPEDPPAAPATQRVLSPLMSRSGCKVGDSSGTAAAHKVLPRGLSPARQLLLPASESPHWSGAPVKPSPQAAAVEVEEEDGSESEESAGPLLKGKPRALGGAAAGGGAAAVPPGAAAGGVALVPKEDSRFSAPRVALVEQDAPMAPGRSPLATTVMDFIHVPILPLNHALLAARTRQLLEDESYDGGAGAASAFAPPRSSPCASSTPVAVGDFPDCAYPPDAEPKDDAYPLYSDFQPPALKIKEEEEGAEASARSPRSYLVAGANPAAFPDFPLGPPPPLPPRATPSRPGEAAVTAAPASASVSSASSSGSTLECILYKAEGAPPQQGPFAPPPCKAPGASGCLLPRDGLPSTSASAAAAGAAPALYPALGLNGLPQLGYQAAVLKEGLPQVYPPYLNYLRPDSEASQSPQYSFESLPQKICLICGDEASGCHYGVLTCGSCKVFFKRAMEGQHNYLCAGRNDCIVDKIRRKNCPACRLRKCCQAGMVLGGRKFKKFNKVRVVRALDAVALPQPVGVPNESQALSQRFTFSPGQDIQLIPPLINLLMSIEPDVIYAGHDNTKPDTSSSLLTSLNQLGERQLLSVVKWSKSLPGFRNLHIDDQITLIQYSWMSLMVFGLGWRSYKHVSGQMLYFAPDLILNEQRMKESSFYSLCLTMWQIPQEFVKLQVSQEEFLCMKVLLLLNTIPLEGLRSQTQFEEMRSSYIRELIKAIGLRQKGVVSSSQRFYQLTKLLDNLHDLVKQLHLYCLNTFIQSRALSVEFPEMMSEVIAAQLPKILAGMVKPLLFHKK
structure (smiles),measurement,setting,value
O[C@]1(C(F)(F)F)CCCC[C@H]1Nc1ccc(F)cc1 [BAY-390],inhibition,[1],-6%
same,inhibition,[2],19.7%
same,inhibition,[3],1%
same,inhibition,[4],18%
same,inhibition,Oryctolagus cuniculus,3%
same,inhibition,[5],9%
same,inhibition,[6],2%
same,inhibition,[7],10%
same,inhibition,[8],65%
same,inhibition,Histamine H2 receptor,-8%
same,inhibition,[9],-1%
same,inhibition,[10],3%
same,inhibition,[11],-2%
same,inhibition,[12],3%
same,inhibition,[13],36.2%
same,pKi,[14]; read-out: Ki,5.86
same,Ki,[14]; read-out: pKi (converted),1350 nM
same,inhibition,[15],5%
same,inhibition,[16],3%
